{
  "source": "BindingDB's records for doi:10.1021/acs.jmedchem.0c00870",
  "about": "(Tu Dortmund University, 2020)",
  "key": {"[1]": {"assay": "Inhibiton of EGFR (unknown origin) expressed in human A431 cells assessed as reduction in EGFR induced cell viability after 96 hrs by CellTiter-Glo assay"}, "[2]": {"assay": "Inhibiton of EGFR L858R/T790M mutant (unknown origin) expressed in human NCI-H1975 cells assessed as reduction in EGFR induced cell viability after 96 hrs by CellTiter-Glo assay"}},
  "data": [
    {"smiles": "C=CC(=O)Nc1cc(-c2c[nH]c3ncnc(Nc4ccc5c(cnn5Cc5ccccc5)c4)c23)ccc1OCCO", "values": [
      {"measurement": "IC50", "setting": "[1]", "value": 2240, "unit": "nM"}
    ]},
    {"smiles": "C=CC(=O)Nc1cccc(-c2c[nH]c3ncnc(Nc4ccc(CN5C(=O)c6ccccc6C5=O)cc4)c23)c1", "values": [
      {"measurement": "IC50", "setting": "[1]", "value": 1570, "unit": "nM"},
      {"measurement": "IC50", "setting": "[2]", "value": 2660, "unit": "nM"}
    ]},
    {"smiles": "C=CC(=O)Nc1cc(-c2c[nH]c3ncnc(Nc4ccc(OCc5ccccn5)c(Cl)c4)c23)ccc1OCCN(C)C", "values": [
      {"measurement": "IC50", "setting": "[1]", "value": 862, "unit": "nM"},
      {"measurement": "IC50", "setting": "[2]", "value": 807, "unit": "nM"}
    ]},
    {"smiles": "C=CC(=O)Nc1cccc(-c2c[nH]c3ncnc(Nc4ccc(OCc5ccccn5)c(Cl)c4)c23)c1", "values": [
      {"measurement": "IC50", "setting": "[1]", "value": 1680, "unit": "nM"},
      {"measurement": "IC50", "setting": "[2]", "value": 739, "unit": "nM"}
    ]}
  ]
}
